System: patients who underwent percutaneous coronary intervention (PCI)
Assay type: in vivo
Procedure: Data collection and statistical analyses—Patients who received ≧1 dose of the study drug and underwent PCI were analyzed for all primary and secondary efficacy and safety end points. […] Statistical tests were 2-sided with an a level of 0.05 and employed the intent-to-treat principle. The Wilcoxon rank-sum test was used. Due to small sample sizes, categorical variables were compared using the Fisher's exact test with the exception of the ST-segment monitoring data, which utilized the Pearson's chi-square test. Statistical analyses were performed using SAS version 8.2 (SAS Institute, Cary, N.C.).

## Cc1ncc(COP(=O)(O)O)c(C=O)c1O [P5P, pyridoxal 5′-phosphate]
10 mg/kg oral ≧4 hours before PCI, then 5 mg/kg twice daily, CK-MB over 24 hours, p=0.038 vs placebo
  median periprocedural CK-MB area under the curve (periprocedural infarct size): 18.6 ng/mL
Continuous ST monitoring within 24 hours after PCI, p=0.78 vs placebo
  rate of post-PCI ischemia: 14.7%
